The values below are quoted from earlier work in US9079837B2, “Water-soluble fluorescent fullerene derivative, and preparation method thereof” (KOREA RESEARCH INSTITUTE OF BIOSCIENCE AND BIOTECHNOLOGY, priority 2010, dated 2015).

Converted amounts (≈) assume the structure as drawn. Where a name gives a salt, the structure may show the parent alone. Read-outs that look alike come from different tables or passages of the source.

The conditions of data set [1]: water; Sivaraman et al., J. Org. Chem. 1992.
The conditions of data set [2]: for fluorescence quantum yield: literature value (J. Am. Chem. Soc. 1993, 1994), room temperature.

Turning to `c12c3c4c5c1c1c6c7c2c2c8c3c3c9c4c4c%10c5c5c1c1c6c6c%11c7c2c2c7c8c3c3c8c9c4c4c9c%10c5c5c1c1c6c6c%11c2c2c7c3c3c8c4c4c9c5c1c1c6c2c3c41` [C60 fullerene, buckminster fullerene (C60)], in data set [1], the solubility is 1.3e-05 ng/mL (≈ 1.8e-05 nM). Further, the fluorescence quantum yield result in data set [2] (listed as fullerenes) is “about 1×10^−4”; in data set [2] (listed as general fullerene) it was 1×10^−4.

As to `C=C[C@H]1C[N@@]2CC[C@H]1C[C@H]2[C@H](O)c1ccnc2ccc(OC)cc12` [quinine sulfate], the “fluorescence quantum yield of standard” value in data set [2] (standard value) was 55×10^−2.
